Experimental data as given in ChEMBL document CHEMBL1782045, “Discovery, synthesis, and investigation of the antitumor activity of novel piperazinylpyrimidine derivatives” (Eur J Med Chem, 2011).

Key:
MDA-MB-435 = assay: Cytotoxicity against human MDA-MB-435 cells after 48 hrs by sulforhodamine B assay; type: cell-based; details: mda-mb-435, 48 h
HT-29 = assay: Growth inhibition of human HT-29 cells after 48 hrs by sulforhodamine B assay; type: functional; details: HT-29, 48 h
[1] = molecular target: Casein kinase I isoform alpha (Homo sapiens) (UniProt P48729); assay: Binding affinity to human CSNK1A1 at 10 uM incubated for 1 hr by kinase binding assay relative to untreated control
SF-268 [2] = assay: Growth inhibition of human SF268 cells after 48 hrs by sulforhodamine B assay; type: functional; details: SF-268, 48 h
NCI-H522 = assay: Cytotoxicity against human NCI-H522 cells after 48 hrs by sulforhodamine B assay; type: cell-based; details: nci-h522, 48 h
SW-620 = assay: Cytotoxicity against human SW620 cells after 48 hrs by sulforhodamine B assay; type: cell-based; details: sw-620, 48 h
[3] = tested on: Platelet-derived growth factor receptor alpha (Homo sapiens), P16234 [V561D]; assay: Inhibition of human PDGFRA V561D using gamma-33P-ATP as substrate assessed as enzyme functional activity at 1 uM by scintillation counting relative to untreated control; set-up: scale not given: the % may be the effect or the level left
786-0 = assay: Cytotoxicity against human 786-0 cells after 48 hrs by sulforhodamine B assay; type: cell-based; details: 786-0, 48 h
ACHN [4] = assay: Cytotoxicity against human ACHN cells after 48 hrs by sulforhodamine B assay; type: cell-based
TK-10 = assay: Cytotoxicity against human TK10 cells after 48 hrs by sulforhodamine B assay; type: cell-based; details: tk-10, 48 h
[5] = molecular target: Casein kinase I isoform delta (Homo sapiens) (UniProt P48730); assay: Inhibition of human CSNK1D using gamma-33P-ATP as substrate assessed as enzyme functional activity at 1 uM by scintillation counting relative to untreated control; set-up: scale not given: the % may be the effect or the level left
HL-60(TB) = assay: Cytotoxicity against human HL-60(TB) cells after 48 hrs by sulforhodamine B assay; type: cell-based
UACC-62 = assay: Growth inhibition of human UACC62 cells after 48 hrs by sulforhodamine B assay; type: functional; details: UACC-62, 48 h
RXF 393 [6] = assay: Growth inhibition of human RXF393 cells after 48 hrs by sulforhodamine B assay; type: functional; details: RXF 393, 48 h
[7] = tested on: Serine/threonine-protein kinase B-raf (Homo sapiens), P15056 [V600E]; assay: Binding affinity to human BRAF V600E mutant at 10 uM incubated for 1 hr by kinase binding assay relative to untreated control
SF-268 [8] = assay: Cytotoxicity against human SF268 cells after 48 hrs by sulforhodamine B assay; type: cell-based; details: sf-268, 48 h
OVCAR-5 [9] = assay: Growth inhibition of human OVCAR5 cells after 48 hrs by sulforhodamine B assay; type: functional; details: OVCAR-5, 48 h
SNB-75 = assay: Growth inhibition of human SNB75 cells after 48 hrs by sulforhodamine B assay; type: functional; details: SNB-75, 48 h
NCI-H226 = assay: Growth inhibition of human NCI-H226 cells after 48 hrs by sulforhodamine B assay; type: functional; details: NCI-H226, 48 h
[10] = molecular target: Receptor-type tyrosine-protein kinase FLT3 (Homo sapiens) (UniProt P36888); assay: Inhibition of human FLT3 using gamma-33P-ATP as substrate assessed as enzyme functional activity at 1 uM by scintillation counting relative to untreated control; set-up: scale not given: the % may be the effect or the level left
[11] = molecular target: Cyclin-dependent kinase 8 (Homo sapiens) (UniProt P49336); assay: Binding affinity to human CDK8 at 10 uM incubated for 1 hr by kinase binding assay relative to untreated control
COLO 205 = assay: Growth inhibition of human COLO205 cells after 48 hrs by sulforhodamine B assay; type: functional; details: COLO 205, 48 h
HOP-62 = assay: Cytotoxicity against human HOP62 cells after 48 hrs by sulforhodamine B assay; type: cell-based; details: hop-62, 48 h
DU-145 = assay: Growth inhibition of human DU145 cells after 48 hrs by sulforhodamine B assay; type: functional; details: DU-145, 48 h
ACHN [12] = assay: Growth inhibition of human ACHN cells after 48 hrs by sulforhodamine B assay; type: functional
RXF 393 [13] = assay: Cytotoxicity against human RXF393 cells after 48 hrs by sulforhodamine B assay; type: cell-based; details: rxf 393, 48 h
Malme-3M = assay: Cytotoxicity against human MALME-3M cells after 48 hrs by sulforhodamine B assay; type: cell-based
LOX IMVI = assay: Cytotoxicity against human LOXIMVI cells after 48 hrs by sulforhodamine B assay; type: cell-based
NCI/ADR-RES [14] = assay: Growth inhibition of human NCI/ADR-RES cells after 48 hrs by sulforhodamine B assay; type: functional
OVCAR-4 = assay: Cytotoxicity against human OVCAR4 cells after 48 hrs by sulforhodamine B assay; type: cell-based; details: ovcar-4, 48 h
CAKI-1 = assay: Cytotoxicity against human Caki1 cells after 48 hrs by sulforhodamine B assay; type: cell-based; details: caki-1, 48 h
OVCAR-5 [15] = assay: Cytotoxicity against human OVCAR5 cells after 48 hrs by sulforhodamine B assay; type: cell-based; details: ovcar-5, 48 h
MDA-MB-231 = assay: Cytotoxicity against human MDA-MB-231 cells after 48 hrs by sulforhodamine B assay; type: cell-based; details: mda-mb-231, 48 h
A549 [16] = assay: Growth inhibition of human A549 cells after 48 hrs by sulforhodamine B assay; type: functional; details: A549, 48 h
HCT-116 [17] = assay: Growth inhibition of human HCT116 cells after 48 hrs by sulforhodamine B assay; type: functional; details: HCT-116, 48 h
HCT-116 [18] = assay: Cytotoxicity against human HCT116 cells after 48 hrs by sulforhodamine B assay; type: cell-based; details: hct-116, 48 h
T47D = assay: Cytotoxicity against human T47D cells after 48 hrs by sulforhodamine B assay; type: cell-based
[19] = tested on: Tyrosine-protein kinase ABL1 (Homo sapiens), P00519 [F317L]; assay: Binding affinity to human phosphorylated ABL1 F317L mutant at 10 uM incubated for 1 hr by kinase binding assay relative to untreated control
SF-539 = assay: Growth inhibition of human SF539 cells after 48 hrs by sulforhodamine B assay; type: functional; details: SF-539, 48 h
NCI-H460 = assay: Cytotoxicity against human NCI-H460 cells after 48 hrs by sulforhodamine B assay; type: cell-based; details: nci-h460, 48 h
SNB-19 = assay: Growth inhibition of human SNB19 cells after 48 hrs by sulforhodamine B assay; type: functional; details: SNB-19, 48 h
A549 [20] = assay: Cytotoxicity against human A549 cells after 48 hrs by sulforhodamine B assay; type: cell-based; details: a549, 48 h
NCI-H322M = assay: Cytotoxicity against human NCI-H322M cells after 48 hrs by sulforhodamine B assay; type: cell-based
NCI/ADR-RES [21] = assay: Cytotoxicity against human NCI/ADR-RES cells after 48 hrs by sulforhodamine B assay; type: cell-based

Chain of Cyclin-dependent kinase 8 (Homo sapiens) (P49336 whole entry): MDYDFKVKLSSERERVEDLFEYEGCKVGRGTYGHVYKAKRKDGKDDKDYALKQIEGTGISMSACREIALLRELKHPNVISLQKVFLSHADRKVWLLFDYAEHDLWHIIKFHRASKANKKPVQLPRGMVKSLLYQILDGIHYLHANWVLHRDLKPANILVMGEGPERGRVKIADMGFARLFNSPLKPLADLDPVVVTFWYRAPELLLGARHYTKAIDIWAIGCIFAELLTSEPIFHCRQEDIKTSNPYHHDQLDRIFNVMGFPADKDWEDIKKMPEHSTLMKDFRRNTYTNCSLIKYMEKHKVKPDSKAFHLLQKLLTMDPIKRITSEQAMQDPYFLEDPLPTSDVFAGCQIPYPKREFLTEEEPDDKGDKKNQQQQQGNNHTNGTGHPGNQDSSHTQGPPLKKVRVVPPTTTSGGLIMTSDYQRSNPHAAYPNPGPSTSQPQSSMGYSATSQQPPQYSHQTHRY
Chain of Casein kinase I isoform delta (Homo sapiens) (P48730 whole entry, looked up, canonical isoform): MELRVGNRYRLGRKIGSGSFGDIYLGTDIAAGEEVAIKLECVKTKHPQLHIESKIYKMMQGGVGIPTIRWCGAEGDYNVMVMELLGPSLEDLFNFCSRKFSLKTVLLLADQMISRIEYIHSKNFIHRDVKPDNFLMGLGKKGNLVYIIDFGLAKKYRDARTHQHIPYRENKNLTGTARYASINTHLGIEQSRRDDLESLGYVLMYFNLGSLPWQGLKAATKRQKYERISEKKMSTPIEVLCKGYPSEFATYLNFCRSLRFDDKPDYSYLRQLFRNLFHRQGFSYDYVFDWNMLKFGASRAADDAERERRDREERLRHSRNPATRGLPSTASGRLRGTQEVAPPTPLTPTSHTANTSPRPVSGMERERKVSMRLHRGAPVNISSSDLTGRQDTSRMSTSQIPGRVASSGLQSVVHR
Chain of Serine/threonine-protein kinase B-raf (Homo sapiens), P15056 [V600E] (P15056 whole entry V600E): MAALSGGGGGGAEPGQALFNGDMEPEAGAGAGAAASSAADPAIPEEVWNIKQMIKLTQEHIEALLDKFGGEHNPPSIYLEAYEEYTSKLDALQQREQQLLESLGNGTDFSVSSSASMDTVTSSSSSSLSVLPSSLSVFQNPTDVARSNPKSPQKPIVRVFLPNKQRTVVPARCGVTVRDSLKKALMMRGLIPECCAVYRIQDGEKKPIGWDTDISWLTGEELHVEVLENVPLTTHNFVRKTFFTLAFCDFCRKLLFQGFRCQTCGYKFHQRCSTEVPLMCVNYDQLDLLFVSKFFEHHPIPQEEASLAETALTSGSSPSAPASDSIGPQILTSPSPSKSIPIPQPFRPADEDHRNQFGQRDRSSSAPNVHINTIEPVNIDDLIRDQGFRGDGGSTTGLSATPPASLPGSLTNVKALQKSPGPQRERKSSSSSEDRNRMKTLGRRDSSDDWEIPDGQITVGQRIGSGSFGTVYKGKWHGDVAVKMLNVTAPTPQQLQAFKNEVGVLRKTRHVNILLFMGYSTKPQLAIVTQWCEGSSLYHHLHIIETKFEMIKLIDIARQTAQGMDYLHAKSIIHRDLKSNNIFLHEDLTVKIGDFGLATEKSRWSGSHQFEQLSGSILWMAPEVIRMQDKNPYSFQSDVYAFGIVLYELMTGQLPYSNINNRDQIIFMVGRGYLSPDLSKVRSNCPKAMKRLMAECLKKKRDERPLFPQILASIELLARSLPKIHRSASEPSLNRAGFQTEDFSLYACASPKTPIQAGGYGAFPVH
Chain of Receptor-type tyrosine-protein kinase FLT3 (Homo sapiens) (P36888 whole entry): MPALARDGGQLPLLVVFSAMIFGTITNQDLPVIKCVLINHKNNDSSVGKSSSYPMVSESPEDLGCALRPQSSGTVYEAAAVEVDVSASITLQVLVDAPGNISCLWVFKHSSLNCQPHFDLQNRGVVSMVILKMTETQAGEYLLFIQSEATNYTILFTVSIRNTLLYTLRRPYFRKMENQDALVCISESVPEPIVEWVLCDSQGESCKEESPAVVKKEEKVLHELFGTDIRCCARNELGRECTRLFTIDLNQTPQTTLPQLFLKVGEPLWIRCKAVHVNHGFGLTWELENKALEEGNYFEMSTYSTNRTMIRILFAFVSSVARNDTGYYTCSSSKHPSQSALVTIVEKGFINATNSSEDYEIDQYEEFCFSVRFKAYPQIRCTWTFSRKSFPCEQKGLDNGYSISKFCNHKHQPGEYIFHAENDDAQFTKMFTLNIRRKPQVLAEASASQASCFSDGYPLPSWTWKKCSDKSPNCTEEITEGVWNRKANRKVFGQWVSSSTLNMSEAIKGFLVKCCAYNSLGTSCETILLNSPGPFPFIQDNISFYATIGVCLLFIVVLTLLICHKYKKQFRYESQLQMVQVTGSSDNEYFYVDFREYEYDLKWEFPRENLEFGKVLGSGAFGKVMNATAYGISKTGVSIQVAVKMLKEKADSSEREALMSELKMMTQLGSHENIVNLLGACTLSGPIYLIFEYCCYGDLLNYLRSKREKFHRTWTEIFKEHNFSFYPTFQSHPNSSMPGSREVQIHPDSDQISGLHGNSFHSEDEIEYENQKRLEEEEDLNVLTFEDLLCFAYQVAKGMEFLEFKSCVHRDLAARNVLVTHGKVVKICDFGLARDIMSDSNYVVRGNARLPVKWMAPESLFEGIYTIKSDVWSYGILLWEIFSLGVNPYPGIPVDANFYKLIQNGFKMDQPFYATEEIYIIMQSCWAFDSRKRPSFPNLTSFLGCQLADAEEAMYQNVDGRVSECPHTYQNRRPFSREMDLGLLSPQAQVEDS
Chain of Platelet-derived growth factor receptor alpha (Homo sapiens), P16234 [V561D] (P16234 whole entry V561D): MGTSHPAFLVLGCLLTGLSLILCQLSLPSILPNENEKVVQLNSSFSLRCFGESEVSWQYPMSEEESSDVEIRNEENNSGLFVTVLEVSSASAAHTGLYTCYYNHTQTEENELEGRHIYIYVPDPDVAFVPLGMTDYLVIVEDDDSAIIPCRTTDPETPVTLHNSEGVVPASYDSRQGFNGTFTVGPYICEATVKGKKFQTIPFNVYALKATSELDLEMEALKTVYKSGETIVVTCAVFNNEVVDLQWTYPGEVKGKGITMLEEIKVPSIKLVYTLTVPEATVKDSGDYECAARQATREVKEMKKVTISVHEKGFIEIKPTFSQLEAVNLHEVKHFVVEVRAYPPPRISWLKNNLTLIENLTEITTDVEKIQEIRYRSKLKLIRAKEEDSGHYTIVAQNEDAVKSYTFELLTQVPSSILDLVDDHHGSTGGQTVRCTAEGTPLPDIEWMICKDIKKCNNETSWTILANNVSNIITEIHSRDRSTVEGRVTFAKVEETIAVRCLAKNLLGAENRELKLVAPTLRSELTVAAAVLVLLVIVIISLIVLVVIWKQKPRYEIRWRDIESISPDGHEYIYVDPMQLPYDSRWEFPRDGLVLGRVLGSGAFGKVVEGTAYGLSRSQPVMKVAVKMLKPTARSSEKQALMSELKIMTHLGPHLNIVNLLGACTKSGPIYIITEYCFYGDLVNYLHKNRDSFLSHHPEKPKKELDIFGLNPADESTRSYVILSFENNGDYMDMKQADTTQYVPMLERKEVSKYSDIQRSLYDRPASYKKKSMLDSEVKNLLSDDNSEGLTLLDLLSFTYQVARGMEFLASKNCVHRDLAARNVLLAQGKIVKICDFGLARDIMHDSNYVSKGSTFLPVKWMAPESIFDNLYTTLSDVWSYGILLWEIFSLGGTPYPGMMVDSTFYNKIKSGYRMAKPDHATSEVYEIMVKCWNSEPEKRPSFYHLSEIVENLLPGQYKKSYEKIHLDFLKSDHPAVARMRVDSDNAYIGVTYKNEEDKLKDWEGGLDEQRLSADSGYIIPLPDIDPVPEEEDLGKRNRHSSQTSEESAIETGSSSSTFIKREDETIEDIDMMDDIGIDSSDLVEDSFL
Chain of Tyrosine-protein kinase ABL1 (Homo sapiens), P00519 [F317L] (P00519 whole entry F317L): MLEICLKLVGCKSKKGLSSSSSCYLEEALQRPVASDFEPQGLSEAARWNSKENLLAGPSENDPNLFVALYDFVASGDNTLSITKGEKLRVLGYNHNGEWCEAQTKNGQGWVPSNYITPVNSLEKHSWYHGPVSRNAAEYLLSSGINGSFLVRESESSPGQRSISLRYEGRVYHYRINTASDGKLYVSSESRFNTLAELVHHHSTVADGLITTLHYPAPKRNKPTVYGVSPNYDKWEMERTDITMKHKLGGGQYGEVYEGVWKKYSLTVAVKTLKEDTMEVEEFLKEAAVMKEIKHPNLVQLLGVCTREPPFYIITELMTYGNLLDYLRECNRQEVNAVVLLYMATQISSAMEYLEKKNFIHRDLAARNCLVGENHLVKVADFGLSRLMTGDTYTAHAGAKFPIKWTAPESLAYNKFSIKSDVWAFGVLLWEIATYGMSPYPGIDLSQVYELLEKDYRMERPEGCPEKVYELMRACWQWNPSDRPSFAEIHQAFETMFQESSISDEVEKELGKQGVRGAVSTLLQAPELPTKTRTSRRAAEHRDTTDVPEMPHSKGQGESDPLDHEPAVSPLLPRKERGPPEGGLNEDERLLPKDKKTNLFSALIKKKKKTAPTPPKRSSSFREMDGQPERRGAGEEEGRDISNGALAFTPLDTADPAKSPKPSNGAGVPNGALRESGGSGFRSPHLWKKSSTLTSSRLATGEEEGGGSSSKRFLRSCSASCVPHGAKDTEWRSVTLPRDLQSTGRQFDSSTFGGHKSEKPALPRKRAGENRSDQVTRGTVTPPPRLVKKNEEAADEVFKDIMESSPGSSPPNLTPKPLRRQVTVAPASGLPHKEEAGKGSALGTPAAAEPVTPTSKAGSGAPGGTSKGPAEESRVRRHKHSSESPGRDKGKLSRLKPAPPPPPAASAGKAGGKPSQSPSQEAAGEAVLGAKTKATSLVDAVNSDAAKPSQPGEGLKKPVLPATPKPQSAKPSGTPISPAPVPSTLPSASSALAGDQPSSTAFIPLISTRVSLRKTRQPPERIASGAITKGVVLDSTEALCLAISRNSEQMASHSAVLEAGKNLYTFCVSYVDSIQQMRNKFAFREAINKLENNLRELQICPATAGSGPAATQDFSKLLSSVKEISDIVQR

O=C(c1cccc(Nc2ncnc3ccccc23)c1)N1CCN(c2ncc(Cc3ccccc3)cn2)CC1
LC50 (MDA-MB-435): 4.57 µM
TGI (HT-29): 9.33 µM
Activity [1]: > 50%
TGI (SF-268 [2]): > 100 µM
LC50 (NCI-H522): 5.13 µM
LC50 (SW-620): > 100 µM
Activity [3]: 100%
LC50 (786-0): > 100 µM
LC50 (ACHN [4]): > 100 µM
LC50 (TK-10): 39.81 µM
Activity [5]: 74%
LC50 (HL-60(TB)): 6.76 µM
TGI (UACC-62): 1.86 µM
TGI (RXF 393 [6]): 11.5 µM
Activity [7]: > 50%
LC50 (SF-268 [8]): 5.01 µM
TGI (OVCAR-5 [9]): 5.75 µM
TGI (SNB-75): 5.89 µM
TGI (NCI-H226): 2.09 µM
Activity [10]: 95%
Activity [11]: > 50%
TGI (COLO 205): 2.75 µM
LC50 (HOP-62): 7.41 µM
TGI (DU-145): 6.46 µM
TGI (ACHN [12]): 4.57 µM
LC50 (RXF 393 [13]): > 100 µM
LC50 (Malme-3M): 5.25 µM
LC50 (LOX IMVI): 5.13 µM
TGI (NCI/ADR-RES [14]): 8.51 µM
LC50 (OVCAR-4): 7.59 µM
LC50 (CAKI-1): 4.47 µM
LC50 (OVCAR-5 [15]): > 100 µM
LC50 (MDA-MB-231): > 100 µM
TGI (A549 [16]): 3.09 µM
TGI (HCT-116 [17]): 3.55 µM
LC50 (HCT-116 [18]): > 100 µM
LC50 (T47D): 5.62 µM
Activity [19]: > 50%
TGI (SF-539): 4.9 µM
LC50 (NCI-H460): > 100 µM
TGI (SNB-19): 8.91 µM
LC50 (A549 [20]): 8.13 µM
LC50 (NCI-H322M): > 100 µM
LC50 (NCI/ADR-RES [21]): > 100 µM

c1ccc(Cc2cnc(N3CCN(c4ncnc5ccccc45)CC3)nc2)cc1
LC50 (MDA-MB-435): 91.4 µM
TGI (HT-29): 35.1 µM
Activity [1]: > 50%
TGI (SF-268 [2]): 57.2 µM
LC50 (NCI-H522): > 100 µM
LC50 (SW-620): 59.9 µM
Activity [3]: 20%
LC50 (786-0): > 100 µM
LC50 (ACHN [4]): > 100 µM
LC50 (TK-10): > 100 µM
Activity [5]: 90%
LC50 (HL-60(TB)): > 100 µM
TGI (UACC-62): 25.9 µM
TGI (RXF 393 [6]): 57.9 µM
Activity [7]: > 50%
LC50 (SF-268 [8]): > 100 µM
TGI (OVCAR-5 [9]): 69.8 µM
TGI (SNB-75): 78.2 µM
TGI (NCI-H226): 48.4 µM
Activity [10]: 74%
Activity [11]: 3.4%
TGI (COLO 205): > 100 µM
LC50 (HOP-62): > 100 µM
TGI (DU-145): 30.7 µM
TGI (ACHN [12]): 42.4 µM
LC50 (RXF 393 [13]): > 100 µM
LC50 (Malme-3M): 89.2 µM
LC50 (LOX IMVI): 44.3 µM
TGI (NCI/ADR-RES [14]): 17.6 µM
LC50 (OVCAR-4): > 100 µM
LC50 (CAKI-1): > 100 µM
LC50 (OVCAR-5 [15]): > 100 µM
LC50 (MDA-MB-231): 92.8 µM
TGI (A549 [16]): 35.7 µM
TGI (HCT-116 [17]): 13.2 µM
LC50 (HCT-116 [18]): 36.4 µM
LC50 (T47D): > 100 µM
Activity [19]: > 50%
TGI (SF-539): 28.5 µM
LC50 (NCI-H460): 55 µM
TGI (SNB-19): > 100 µM
LC50 (A549 [20]): > 100 µM
LC50 (NCI-H322M): > 100 µM
LC50 (NCI/ADR-RES [21]): 66.4 µM

CCc1cnc(N2CCN(C(=O)c3ccc(CNc4ncnc5ccccc45)cc3)CC2)nc1
LC50 (MDA-MB-435): > 100 µM
TGI (HT-29): 83.2 µM
Activity [1]: 36%
TGI (SF-268 [2]): 100 µM
LC50 (NCI-H522): > 100 µM
LC50 (SW-620): > 100 µM
Activity [3]: 100%
LC50 (786-0): > 100 µM
LC50 (ACHN [4]): > 100 µM
LC50 (TK-10): > 100 µM
Activity [5]: 87%
LC50 (HL-60(TB)): > 100 µM
TGI (UACC-62): 80.9 µM
TGI (RXF 393 [6]): 41.6 µM
Activity [7]: 13%
LC50 (SF-268 [8]): > 100 µM
TGI (OVCAR-5 [9]): > 100 µM
TGI (SNB-75): 58.2 µM
TGI (NCI-H226): > 100 µM
Activity [10]: 80%
Activity [11]: > 50%
TGI (COLO 205): 38.2 µM
LC50 (HOP-62): > 100 µM
TGI (DU-145): > 100 µM
TGI (ACHN [12]): 82.5 µM
LC50 (RXF 393 [13]): > 100 µM
LC50 (Malme-3M): > 100 µM
LC50 (LOX IMVI): 97.3 µM
TGI (NCI/ADR-RES [14]): 21.5 µM
LC50 (OVCAR-4): > 100 µM
LC50 (CAKI-1): > 100 µM
LC50 (OVCAR-5 [15]): > 100 µM
LC50 (MDA-MB-231): > 100 µM
TGI (A549 [16]): > 100 µM
TGI (HCT-116 [17]): 25 µM
LC50 (HCT-116 [18]): > 100 µM
LC50 (T47D): > 100 µM
Activity [19]: 6.8%
TGI (SF-539): > 100 µM
LC50 (NCI-H460): > 100 µM
TGI (SNB-19): > 100 µM
LC50 (A549 [20]): > 100 µM
LC50 (NCI-H322M): > 100 µM
LC50 (NCI/ADR-RES [21]): > 100 µM
